Reference: patent publication US20240408222A1, “COMPOUNDS, PHARMACEUTICAL COMPOSITIONS, AND METHODS FOR THE TREATMENT, PREVENTION, OR MANAGEMENT OF HYPERPRO[…]” (VINCERX PHARMA GMBH, priority 2021, published 2024)

Columns and labels:
[1] = test system: NCI H292; assay: Cytotoxicity assay (Version 2, automated, AC50) with/without neutrophil elastase; assay type: cell-based, human; settings: Version 2, activity concentration at −50%
Description: (§1) Cultivation of cells was performed according to standard procedures with the media recommended by the provider. The cells, in a total volume of 100 μL, were seeded in a 96-well plate with a white bottom (#3610). After a 24 h incubation period at 37° C. and […], the medium was exchanged by adding 90 μL fresh medium. The treatment started by adding the test compound in 10 μL of culture medium to the cells in triplicates. Concentrations ranging from 10^−5 M to 10^−13 M were chosen. Two identically treated sets of samples were prepared. One set was treated with the test compound alone, whereas to the second set the compound and 10 nM elastase was added followed by a 72 h incubation period at 37° C. and […]. The proliferation was detected using the MTT assay (ATCC). At the end of the incubation period the MTT reagent was added to all samples for 4 h. Lysis of the cells followed by addition of the detergent was done overnight. The formed dye was detected at 570 nm. The proliferation of untreated but otherwise identically handled cells was define as the 100% value.
(§2) The cytotoxicity assay (Version 2) was performed as described above. Some changes were applied as the assays were performed in an automated fashion and the IC50 values determination was changed. Here the change in metabolic activity of the cells, in percent, was calculated by normalization of the measured values to the absorbance values of medium containing wells without cells (═−100%) and the absorbance of the DMSO-treated cells (═0%). AC50 values (activity concentration at −50%) were determined by means of a 4 parameter Hill-fit using GeneData Screener software.

[2] = test system: HT29; assay: as above; assay type: cell-based, human; settings: Version 2, activity concentration at −50%
Description: as §1, §2

[3] = test system: 786-O; assay: as above; assay type: cell-based, human; settings: Version 2, activity concentration at −50%
Description: as §1, §2

[4] = test system: SUM149; assay: Cytotoxicity in vitro (MTT) in presence/absence of elastase; assay type: cell-based; settings: 72 h
Description: as §1

[5] = test system: SUM149; assay: Cytotoxicity assay (Version 2, automated, AC50) with/without neutrophil elastase; assay type: cell-based; settings: Version 2, activity concentration at −50%
Description: as §1, §2

[6] = test system: NCI H292; assay: Cytotoxicity in vitro (MTT) in presence/absence of elastase; assay type: cell-based, human; settings: 72 h
Description: as §1

[7] = test system: HT29; assay: as above; assay type: cell-based, human; settings: 72 h
Description: as §1

[8] = test system: 786-O; assay: as above; assay type: cell-based, human; settings: 72 h
Description: as §1

[9] = in vivo; settings: male, rat, plasma, iv, 0.5 mg/kg
Description: Male rats (n=3) were given an intravenous 0.5 or 2.0 mg/kg bolus dose of test article dissolved in plasma with 1% DMSO and 2% ethanol (C30 only). Serial blood samples were collected up to 24 hours post-dose. Plasma was harvested from blood samples and stored frozen until sample analysis. Test article plasma concentrations were analyzed by LC/MS/MS.

[10] = NCI H292, with (+) neutrophil elastase
[11] = NCI H292, without (−) neutrophil elastase
[12] = HT29, with (+) neutrophil elastase
[13] = HT29, without (−) neutrophil elastase
[14] = without (−) neutrophil elastase
[15] = SUM149, with (+) 10 nM neutrophil elastase
[16] = SUM149, without (−) neutrophil elastase
[17] = SUM149, with (+) neutrophil elastase
[18] = NCI H292, with (+) 10 nM neutrophil elastase
[19] = HT29, with (+) 10 nM neutrophil elastase
[20] = with (+) 10 nM neutrophil elastase

SMILES | AC50 [1, 10] [nM] | AC50 [1, 11] [nM] | AC50 [2, 12] [nM] | AC50 [2, 13] [nM] | AC50 ([3]; with (+) neutrophil elastase) [nM] | AC50 [3, 14] [nM] | IC50 [4, 15] [nM] | IC50 [4, 16] [nM] | AC50 [5, 17] [nM] | AC50 [5, 16] [nM] | IC50 [6, 18] [nM] | IC50 [6, 11] [nM] | IC50 [7, 19] [nM] | IC50 [7, 13] [nM] | IC50 [8, 20] [nM] | IC50 [8, 14] [nM] | AUC [9] [ng·h/mL] | Vd [9] [L/kg] | clearance [9] [mL/min/kg] | half-life [9] [h]
CCCNC(=O)Nc1cccc(S(=O)(=O)Nc2cccc([C@H](CC(=O)O)NC(=O)Nc3ccc(NC(=O)NCCN(C)CCN(C)CCN(C)CC(=O)N[C@@H](CC(N)=O)C(=O)N4CCC[C@H]4C(=O)N[C@H](C(=O)N=[S@@](C)(=O)Cc4cc5cc(c4)OCCCCCNc4cc(ccc4F)-c4nc(ncc4F)N5)C(C)C)cc3)c2)c1 (relative stereo) [Compound 16] | 11 to 100 | 100 to 1000 | ≤ 10 | > 1000 | 11 to 100 | > 1000 | 1.1 to 10 | 11 to 100 | 11 to 100 | > 1000 | ≤ 1 | 11 to 100 | ≤ 1 | > 100 | 1.1 to 10 | > 100 | – | – | – | –
CCCNC(=O)Nc1cccc(S(=O)(=O)Nc2cccc([C@@H](CC(=O)O)NC(=O)Nc3ccc(NC(=O)NCCN(C)CCN(C)CCN(C)CC(=O)N[C@@H](CC(N)=O)C(=O)N4CCC[C@H]4C(=O)N[C@H](C(=O)N=[S@](C)(=O)Cc4cc5cc(c4)OCCCCCNc4cc(ccc4F)-c4nc(ncc4F)N5)C(C)C)cc3)c2)c1 (relative stereo) [Compound 17] | ≤ 10 | 100 to 1000 | ≤ 10 | > 1000 | ≤ 10 | 100 to 1000 | 1.1 to 10 | 11 to 100 | ≤ 10 | 100 to 1000 | ≤ 1 | 11 to 100 | ≤ 1 | 11 to 100 | 1.1 to 10 | > 100 | – | – | – | –
CCCNC(=O)Nc1cccc(S(=O)(=O)Nc2cccc([C@@H](CC(=O)O)NC(=O)Nc3ccc(NC(=O)NCCOCCOCCOCCC(=O)NCCCC[C@H](NC(=O)CCOCCOCCOCCNC(=O)Nc4ccc(NC(=O)N[C@H](CC(=O)O)c5cccc(NS(=O)(=O)c6cccc(NC(=O)NCCC)c6)c5)cc4)C(=O)NCCOCCOCCOCCC(=O)N[C@@H](CC(=O)O)C(=O)N4CCC[C@H]4C(=O)N[C@H](C(=O)N=S(C)(=O)Cc4cc5cc(c4)OC(C)CCOc4cc(F)ccc4-c4nc(ncc4F)N5)C(C)C)cc3)c2)c1 (relative stereo) [Compound 30] | – | – | – | – | – | – | – | – | – | – | – | – | – | – | – | – | 50000 to 150000 | > 0.1 | 0.05 to 0.5 | 10 to 20
CCCNC(=O)Nc1cccc(S(=O)(=O)Nc2cccc([C@@H](CC(=O)O)NC(=O)Nc3ccc(NC(=O)N(C)CCN(C)CCN(C)CC(=O)N[C@@H](CC(N)=O)C(=O)N4CCC[C@H]4C(=O)N[C@H](C(=O)N=[S@@](C)(=O)Cc4ccnc(Nc5cc(-c6ccc(F)cc6OC)c(F)cn5)c4)C(C)C)cc3)c2)c1 [Compound 4, N-{2-[{2-[({4-[({(1R)-2-Carboxy-1-[3-({3-[(propylcarbamoyl)amino]benzene-1-sulfonyl}amino)phenyl]ethyl}carbamoyl)amino]phenyl}carbamoyl)(methyl)amino]ethyl} (methyl)amino]ethyl}-N-methylglycyl-L-asparaginyl-L-prolyl-N—[(S)-[(2-{[5-fluoro-4-(4-fluoro-2-methoxyphenyl)pyridine-2-yl]amino}pyridin-4-yl)methyl](methyl)oxo-lambda^6-sulfanylidene]-L-valinamide] | > 1000 | > 1000 | 100 to 1000 | > 1000 | 11 to 100 | > 1000 | 11 to 100 | > 100 | 100 to 1000 | > 1000 | 11 to 100 | > 100 | 11 to 100 | > 100 | 11 to 100 | > 100 | – | – | – | –
CCCNC(=O)Nc1cccc(S(=O)(=O)Nc2cccc([C@@H](CC(=O)O)NC(=O)Nc3ccc(NC(=O)N(C)CCN(C)CCN(C)CC(=O)N[C@@H](CC(N)=O)C(=O)N4CCC[C@H]4C(=O)N[C@H](C(=O)N=[S@@](C)(=O)Cc4cc5cc(c4)OCCCCOc4cc(F)ccc4-c4nc(ncc4F)N5)C(C)C)cc3)c2)c1 [Compound 5, N-{2-[{2-[({4-[({(1R)-2-Carboxy-1-[3-({3-[(propylcarbamoyl)amino]benzene-1-sulfonyl}amino)phenyl]ethyl}carbamoyl)amino]phenyl}carbamoyl)(methyl)amino]ethyl} (methyl)amino]ethyl}-N-methylglycyl-L-asparaginyl-L-prolyl-N—[(S)-{[16,20-difluoro-2,3,4,5-tetrahydro-12H-13,17-(azeno)-11,7-(metheno)-1,6,12,14-benzodioxadiazacyclononadecin-9-yl]methyl}(methyl)oxo-lambda^6-sulfanylidene]-L-valinamide] | 11 to 100 | 100 to 1000 | 11 to 100 | > 1000 | 11 to 100 | > 1000 | 1.1 to 10 | > 100 | 11 to 100 | > 1000 | 1.1 to 10 | > 100 | ≤ 1 | > 100 | ≤ 1 | > 100 | – | – | – | –
CCCNC(=O)Nc1cccc(S(=O)(=O)Nc2cccc([C@H](CC(=O)O)NC(=O)Nc3ccc(NC(=O)NCCOCCOCCOCCC(=O)N[C@@H](CC(=O)O)C(=O)N4CCC[C@H]4C(=O)N[C@H](C(=O)N=[S@@](C)(=O)Cc4cc5cc(c4)OCCCCOc4cc(F)ccc4-c4nc(ncc4F)N5)C(C)C)cc3)c2)c1 [Compound 14] | 11 to 100 | 100 to 1000 | 11 to 100 | > 1000 | 11 to 100 | > 1000 | ≤ 1 | > 100 | 11 to 100 | 100 to 1000 | 1.1 to 10 | > 100 | ≤ 1 | > 100 | ≤ 1 | > 100 | – | – | – | –
CCCNC(=O)Nc1cccc(S(=O)(=O)Nc2cccc([C@@H](CC(=O)O)NC(=O)Nc3ccc(NC(=O)NCCOCCOCCOCCC(=O)NCCCC[C@H](NC(=O)CCOCCOCCOCCNC(=O)Nc4ccc(NC(=O)N[C@H](CC(=O)O)c5cccc(NS(=O)(=O)c6cccc(NC(=O)NCCC)c6)c5)cc4)C(=O)NCCOCCOCCOCCC(=O)N[C@@H](CC(=O)O)C(=O)N4CCC[C@H]4C(=O)N[C@H](C(=O)N=[S@@](C)(=O)Cc4cc5cc(c4)OCCCCOc4cc(F)ccc4-c4nc(ncc4F)N5)C(C)C)cc3)c2)c1 [Compound 18] | 11 to 100 | 100 to 1000 | 11 to 100 | > 1000 | 11 to 100 | > 1000 | ≤ 1 | 11 to 100 | ≤ 10 | 100 to 1000 | 1.1 to 10 | > 100 | ≤ 1 | 11 to 100 | 1.1 to 10 | > 100 | – | – | – | –
CCCNC(=O)Nc1cccc(S(=O)(=O)Nc2cccc([C@H](CC(=O)O)NC(=O)Nc3ccc(NC(=O)NCCOCCOCCOCCC(=O)NCCCC[C@H](NC(=O)CCOCCOCCOCCNC(=O)Nc4ccc(NC(=O)N[C@@H](CC(=O)O)c5cccc(NS(=O)(=O)c6cccc(NC(=O)NCCC)c6)c5)cc4)C(=O)NCCOCCOCCOCCC(=O)N[C@@H](CC(=O)O)C(=O)N4CCC[C@H]4C(=O)N[C@H](C(=O)N=[S@@](C)(=O)Cc4cc5cc(c4)OCCCCOc4cc(F)ccc4-c4nc(ncc4F)N5)C(C)C)cc3)c2)c1 [Compound 19] | 11 to 100 | 100 to 1000 | 100 to 1000 | 100 to 1000 | 100 to 1000 | 100 to 1000 | ≤ 1 | 1.1 to 10 | 100 to 1000 | 100 to 1000 | 1.1 to 10 | 11 to 100 | ≤ 1 | 11 to 100 | 1.1 to 10 | > 100 | – | – | – | –
